Key:
CCRF-CEM = test: Compound was evaluated for its toxicity by […] assay in CEM; format: functional, cell-based; details: Homo sapiens
Hepatitis B virus = test: Antiviral activity against Hepatitis-B virus 2.2.15(HBV); format: functional, organism-based; details: HepG2 2.2.15
Human alphaherpesvirus 2 = test: Antiviral activity against Herpes simplex virus type-2; format: functional, organism-based
Human alphaherpesvirus 1 = test: Antiviral activity against Herpes simplex virus type-1; format: functional, organism-based
[1] = Compound was evaluated for its toxicity by […] assay in PBM; format: functional, Homo sapiens
[2] = Antiviral activity against human immunodeficiency virus type-1 (HIV-1) in PBM cells; format: functional, cell-based; details: PBMC
Vero = test: Compound was evaluated for its toxicity by […] assay in vero cells; format: functional, cell-based; details: Chlorocebus sabaeus

SMILES	EC50 (Hepatitis B virus) [µM]	EC50 (Human alphaherpesvirus 2) [µM]	EC50 (Human alphaherpesvirus 1) [µM]	EC50 [2] [µM]	IC50 (CCRF-CEM) [µM]	IC50 [1] [µM]	IC50 (Vero) [µM]
Nc1ncnc2c1ncn2[C@H]1O[C@@H](CO)[C@H](O)C1(F)F	> 20	> 100	> 100	3.4	> 100	> 100	> 100
Nc1ncnc2c1ncn2[C@@H]1O[C@@H](CO)[C@H](O)C1(F)F	> 20	> 100	> 100	> 100	> 100	> 100	> 100
Cc1cn([C@H]2C[C@H](N=[N+]=[N-])[C@@H](CO)O2)c(=O)[nH]c1=O [ZIDOVUDINE]	> 10	> 100	> 100	0.004	13	> 100	29
Nc1nc(=O)n([C@@H]2O[C@@H](CO)[C@H](O)C2(F)F)cc1I	> 10	> 100	> 100	> 100	> 100	> 100	> 100

Further lines, with some results ahead:

EC50 (Hepatitis B virus) [µM]	EC50 (Human alphaherpesvirus 2) [µM]	EC50 (Human alphaherpesvirus 1) [µM]	EC50 [2] [µM]	SMILES	IC50 (CCRF-CEM) [µM]	IC50 [1] [µM]	IC50 (Vero) [µM]
> 10	> 100	> 100	> 100	O=c1[nH]c(=O)n([C@H]2O[C@@H](CO)[C@H](O)C2(F)F)cc1F	> 100	> 100	> 100
> 10	> 100	> 100	> 100	O=c1[nH]c(=O)n([C@@H]2O[C@@H](CO)[C@H](O)C2(F)F)cc1F	> 100	> 100	100
> 10	> 100	> 100	> 100	Nc1nc(=O)n([C@H]2O[C@@H](CO)[C@H](O)C2(F)F)cc1I	> 100	> 100	> 100
